Our source for the IC50 values is US20240317744A1, “Bicyclic Ureas As Kinase Inhibitors” (Incyte Corporation, priority 2023, published 2024).

Assay [1] addresses T1, pseudo-kinase domain (JH2, amino-acids 536-812) of human V617F mutant JAK2 (Homo sapiens, UniProt O60674, F794H/V617F/W659A/W777A).
T1 construct: pseudo-kinase domain (JH2, amino-acids 536-812 with 3 surface mutations W659A, W777A, F794H); His (C); purchased BPS Bioscience 79498; host or cells: baculovirus expression system
Put plainly: JAK2 LanthaScreen JH2-V617F Binding Assay. As to conditions: JAK2 JH2-V617F 0.26 nM, 50 nM tracer, 1 hour at 25° C.; read-out: JH2 BIND V617F. An outline of the steps: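 Competition of compounds with a fluorescent tracer (50 nM) for the biotinylated domain (0.26 nM), detected via streptavidin-Tb (0.25 nM) after 1 h at 25° C in pH 7.5 Tris buffer containing glycerol, BSA and Brij-35. ATP at 2 mM gave background. IC50 by four-parameter fit.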
(Time-resolved FRET reads energy transfer from a long-lived donor to a nearby acceptor.)

Assay [2] deals with catalytic domain (JH1, amino acids 808-1132) of human JAK2 (Homo sapiens, UniProt O60674). Put plainly: JAK2 HTRF Enzyme Activity Assay. The format is biochemical. Conditions: ATP 30 µM, 60 minutes at 25° C.; read-out: V617F ENZ 30 UM.
Assay [3] concerns the target T2, catalytic domain (JH1, amino acids 826-1132) of human JAK2 (Homo sapiens, UniProt O60674).
T2 construct: catalytic domain (JH1, amino acids 826-1132) of human JAK2; FLAG (N); biotin (biotinylated); purchased Carna Biosciences 08-445-20N; host or cells: baculovirus expression system
Put plainly: JAK2 LanthaScreen JH1 Binding Assay. Conditions: JAK2 JH1 1.5 nM, 50 nM tracer, 2 hours at 25° C.; read-out: JH1 BIND. The method, then:
Example A. JAK2 LanthaScreen JH1 Binding Assay
JAK2 JH1 binding assay utilizes catalytic domain (JH1, amino acids 826-1132) of human JAK2 expressed as N-terminal FLAG-tagged, biotinylated protein in a baculovirus expression system (Carna Biosciences, Product #08-445-20N). The assay was conducted in black 384-well polystyrene plates in a final reaction volume of 20 μL. JAK2 JH1 (1.5 nM) was incubated with compounds (100 nL serially diluted in DMSO) in the presence of 50 nM fluorescent JAK2-JH1 tracer and 0.5 nM Streptavidin-Tb cryptate (Cisbio Part #610SATLB) in assay buffer (50 mM Tris, pH=7.5, 10 mM MgCl2, 0.01% Brij-35, 0.1% BSA, 1 mM EGTA, 5% Glycerol and 5 mM DTT). Non-specific binding was accessed in the presence of 2 mM ATP. After incubation for 2 hours at 25° C., LanthaScreen signals were read on a PHERAstar FS plate reader (BMG LABTECH). Data was analyzed with IDBS XLfit and GraphPad Prism 5.0 software using a four parameter dose response curve to determine IC50 for each compound.

Assay [4] deals with T3, pseudo-kinase domain (JH2, amino-acids 536-812) of human Wild Type JAK2 (Homo sapiens, UniProt O60674, F794H/W659A/W777A).
T3 construct: pseudo-kinase domain (JH2, amino-acids 536-812 with 3 surface mutations W659A, W777A, F794H); His (C); purchased BPS Bioscience 79463; host or cells: baculovirus expression system
Put plainly: JAK2 LanthaScreen JH2-WT Binding Assay. Conditions: JAK2 JH2-WT 0.145 nM, 50 nM tracer, 1 hour at 25° C.; read-out: JH2 BIND WT. The method, then:
Example B. JAK2 LanthaScreen JH2-WT Binding Assay
JAK2 JH2-WT binding assay utilizes pseudo-kinase domain (JH2, amino-acids 536-812 with 3 surface mutations W659A, W777A, F794H) of human Wild Type JAK2 expressed as C-terminal His-Avi-tagged, biotinylated protein in a baculovirus expression system (BPS Bioscience, Catalog #79463). The assay was conducted in black 384-well polystyrene plates in a final reaction volume of 20 μL. JAK2 JH2-WT (0.145 nM) was incubated with compounds (100 nL serially diluted in DMSO) in the presence of 50 nM Fluorescent JAK2-JH2 Tracer (MedChem Express Catalog #HY-102055) and 0.25 nM Streptavidin-Tb cryptate (Cisbio Part #610SATLB) in assay buffer (50 mM Tris, pH=7.5, 10 mM MgCl2, 0.01% Brij-35, 0.1% BSA, 1 mM EGTA, 5% Glycerol and 5 mM DTT). Non-specific binding was accessed in the presence of 2 mM ATP. After incubation for 1 hour at 25° C., LanthaScreen signals were read on a PHERAstar FS plate reader (BMG LABTECH). Data was analyzed with IDBS XLfit and GraphPad Prism 5.0 software using a four parameter dose response curve to determine IC50 for each compound.

T1 sequence (O60674 536-812 V617F/W659A/W777A/F794H): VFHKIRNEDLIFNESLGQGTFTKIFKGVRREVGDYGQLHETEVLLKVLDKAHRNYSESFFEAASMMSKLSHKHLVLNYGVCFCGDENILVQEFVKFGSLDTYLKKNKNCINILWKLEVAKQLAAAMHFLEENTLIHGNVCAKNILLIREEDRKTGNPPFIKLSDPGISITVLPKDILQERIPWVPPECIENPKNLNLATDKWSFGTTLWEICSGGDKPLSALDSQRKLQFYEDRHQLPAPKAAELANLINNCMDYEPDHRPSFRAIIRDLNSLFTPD
Sequence of catalytic domain (JH1, amino acids 808-1132) of human JAK2 (O60674 808-1132 limits assumed): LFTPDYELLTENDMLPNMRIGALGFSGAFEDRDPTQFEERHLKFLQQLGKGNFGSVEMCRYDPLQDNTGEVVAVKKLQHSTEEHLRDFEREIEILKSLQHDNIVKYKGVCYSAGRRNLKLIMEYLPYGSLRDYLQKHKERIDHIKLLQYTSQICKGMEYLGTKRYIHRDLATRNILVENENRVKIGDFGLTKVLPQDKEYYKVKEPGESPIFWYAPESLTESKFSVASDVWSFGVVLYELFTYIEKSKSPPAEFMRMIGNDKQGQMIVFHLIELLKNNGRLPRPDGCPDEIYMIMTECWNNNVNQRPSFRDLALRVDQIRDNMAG
T2 sequence (O60674 826-1132): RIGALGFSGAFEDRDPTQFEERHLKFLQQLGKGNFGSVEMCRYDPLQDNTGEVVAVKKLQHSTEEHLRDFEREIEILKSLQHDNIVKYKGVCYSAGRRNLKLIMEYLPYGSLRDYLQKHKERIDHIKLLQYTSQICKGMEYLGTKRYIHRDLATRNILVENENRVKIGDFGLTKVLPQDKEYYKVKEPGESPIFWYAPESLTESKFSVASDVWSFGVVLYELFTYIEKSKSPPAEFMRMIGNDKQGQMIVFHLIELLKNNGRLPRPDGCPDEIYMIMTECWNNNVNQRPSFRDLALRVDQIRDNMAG
T3 sequence (O60674 536-812 W659A/W777A/F794H): as the sequence (O60674 536-812 V617F/W659A/W777A/F794H) above, with F82V counted along it

On to `[2H]C([2H])([2H])n1c(=O)n([C@H]2CC[C@@](C)(NC(=O)C3CC3)CC2)c2cc(Nc3ccc4nn(C)c(-c5cnn(C(F)(F)F)c5)c4n3)ncc21` (single isomer, unassigned) [Example 91, N-((1s,4s)-1-Methyl-4-(3-(methyl-d3)-6-((2-methyl-3-(1-(trifluoromethyl)-1H-pyrazol-4-yl)-2H-pyrazolo[4,3-b]pyridin-5-yl)amino)-2-oxo-2,3-dihydro-1H-imidazo[4,5-c]pyridin-1-yl)cyclohexyl)cyclopropanecarboxamide], for which the IC50 was at most 10 nM in assay [1], 10 to 100 nM in assay [2], above 1000 nM in assay [3] and at most 10 nM in assay [4].
In the case of `[2H]C([2H])([2H])n1c(=O)n([C@]2([2H])CC[C@@H](NC(=O)OC)C2)c2cc(Nc3cc(-c4cnccc4C(F)(F)F)c4nc(C)c(-c5cnn(C(F)F)c5)n4n3)ncc21` (single isomer, unassigned) [Example 97], the IC50 is at most 10 nM in assay [1], 500 to 1000 nM in assay [2], above 1000 nM in assay [3] and at most 10 nM in assay [4].
Regarding `CCOC(=O)c1cnc(Nc2cc(Nc3cc4c(cn3)n(C)c(=O)n4[C@@H]3CC[C@@H](NC(=O)OC)C3)cc(-c3cccc(C#N)c3)c2)o1` [Example 1, Ethyl 2-((3′-cyano-5-((1-((1R,3R)-3-((methoxycarbonyl)amino)cyclopentyl)-3-methyl-2-oxo-2,3-dihydro-1H-imidazo[4,5-c]pyridin-6-yl)amino)-[1,1′-biphenyl]-3-yl)amino)oxazole-5-carboxylate], the IC50 in assay [1] was 100 to 500 nM; in assay [2] it was above 1000 nM; in assay [3], above 1000 nM; in assay [4] it was 10 to 100 nM.
Consider `COC(=O)N[C@@H]1CC[C@@H](n2c(=O)n(C)c3cnc(Nc4cc(NC(=O)C5(F)CCOCC5)cc(-c5cccc(C#N)c5)c4)cc32)C1` [Example 2, Methyl ((1R,3R)-3-(6-((3′-cyano-5-(4-fluorotetrahydro-2H-pyran-4-carboxamido)-[1,1′-biphenyl]-3-yl)amino)-3-methyl-2-oxo-2,3-dihydro-1H-imidazo[4,5-c]pyridin-1-yl)cyclopentyl)carbamate], for which the IC50 in assay [1] is at most 10 nM; in assay [2], above 1000 nM; in assay [3] it was above 1000 nM; in assay [4], at most 10 nM.
Consider `[2H]C([2H])([2H])n1c(=O)n([C@@H]2CC[C@@H](NC(=O)OC)C2)c2cc(Nc3cc(C(=O)N4CC5(CCN5C)C4)c4cccc(C(F)(F)F)c4n3)ncc21` [Example 3, Methyl ((1R,3R)-3-(3-(methyl-d3)-6-((4-(1-methyl-1,6-diazaspiro[3.3]heptane-6-carbonyl)-8-(trifluoromethyl)quinolin-2-yl)amino)-2-oxo-2,3-dihydro-1H-imidazo[4,5-c]pyridin-1-yl)cyclopentyl)carbamate], for which the IC50 in assay [1] was at most 10 nM; in assay [2], 500 to 1000 nM; in assay [3] it was above 1000 nM; in assay [4] it was at most 10 nM.
Take `COC(=O)N[C@@H]1CC[C@@H](n2c(=O)n(C)c3cnc(Nc4cccc(-c5ccc(CO)c(C)c5)n4)cc32)C1` [Example 4, Methyl ((1R,3R)-3-(6-((6-(4-(hydroxymethyl)-3-methylphenyl)pyridin-2-yl)amino)-3-methyl-2-oxo-2,3-dihydro-1H-imidazo[4,5-c]pyridin-1-yl)cyclopentyl)carbamate]: the IC50 in assay [1] is at most 10 nM; in assay [2], above 1000 nM; in assay [3], above 1000 nM; in assay [4], at most 10 nM.
Regarding `COC(=O)N[C@@H]1CC[C@@H](n2c(=O)n(C)c3cnc(Nc4cccc(-c5ccc(OC)nc5)n4)cc32)C1` [Example 5, Methyl ((1R,3R)-3-(6-((6′-methoxy-[2,3′-bipyridin]-6-yl)amino)-3-methyl-2-oxo-2,3-dihydro-1H-imidazo[4,5-c]pyridin-1-yl)cyclopentyl)carbamate], the IC50 in assay [1] is at most 10 nM; in assay [2] it was above 1000 nM; in assay [3], above 1000 nM; in assay [4] it was at most 10 nM.
Turning to `[2H]C([2H])([2H])n1c(=O)n([C@@H]2CC[C@@H](NC(=O)OC)C2)c2cc(Nc3cc(C(=O)N4CCC(C#N)CC4)c4cccc(C(F)(F)F)c4n3)ncc21` [Example 6, Methyl ((1R,3R)-3-(6-((4-(4-cyanopiperidine-1-carbonyl)-8-(trifluoromethyl)quinolin-2-yl)amino)-3-(methyl-d3)-2-oxo-2,3-dihydro-1H-imidazo[4,5-c]pyridin-1-yl)cyclopentyl)carbamate], the IC50 in assay [1] was at most 10 nM; in assay [2] it was 100 to 500 nM; in assay [3] it was 100 to 500 nM; in assay [4], at most 10 nM.
Regarding `COC(=O)N[C@@H]1CC[C@@H](n2c(=O)n(C)c3cnc(Nc4cccc(-c5ccc6[nH]nc(C)c6c5)n4)cc32)C1` [Example 7, Methyl ((1R,3R)-3-(3-methyl-6-((6-(3-methyl-1H-indazol-5-yl)pyridin-2-yl)amino)-2-oxo-2,3-dihydro-1H-imidazo[4,5-c]pyridin-1-yl)cyclopentyl)carbamate], the IC50 in assay [1] was 10 to 100 nM; in assay [2] it was above 1000 nM; in assay [3] it was above 1000 nM; in assay [4], at most 10 nM.
Turning to `COC(=O)N[C@@H]1CC[C@@H](n2c(=O)n(C)c3cnc(Nc4cccc(-c5ccc6c(c5)OCCO6)n4)cc32)C1` [Example 8, Methyl ((1R,3R)-3-(6-((6-(2,3-dihydrobenzo[b][1,4]dioxin-6-yl)pyridin-2-yl)amino)-3-methyl-2-oxo-2,3-dihydro-1H-imidazo[4,5-c]pyridin-1-yl)cyclopentyl)carbamate], the IC50 in assay [1] is at most 10 nM; in assay [2], above 1000 nM; in assay [3], above 1000 nM; in assay [4] it was at most 10 nM.
On to `[2H]C([2H])([2H])n1c(=O)n([C@@H]2CC[C@](C)(NC(C)=O)C2)c2cc(Nc3cc(-c4cnccc4C(F)(F)F)c4nc(C)c(-c5cnn(C(F)F)c5)n4n3)ncc21` [Example 168, N-((1S,3R)-3-(6-((3-(1-(Difluoromethyl)-1H-pyrazol-4-yl)-2-methyl-8-(4-(trifluoromethyl)pyridin-3-yl)imidazo[1,2-b]pyridazin-6-yl)amino)-3-(methyl-d3)-2-oxo-2,3-dihydro-1H-imidazo[4,5-c]pyridin-1-yl)-1-methylcyclopentyl)acetamide], for which the IC50 was at most 10 nM in assay [1] and above 1000 nM in assay [2].
As to `[2H]C([2H])([2H])n1c(=O)n([C@@H]2CC[C@@]([2H])(NC(=O)OC)C2)c2cc(Nc3cc(C(C)(C)O)c4nc(C)n(-c5cnn(C(F)F)c5)c4n3)ncc21` [Example 169, Methyl ((1R,3R)-3-(6-((3-(1-(difluoromethyl)-1H-pyrazol-4-yl)-7-(2-hydroxypropan-2-yl)-2-methyl-3H-imidazo[4,5-b]pyridin-5-yl)amino)-3-(methyl-d3)-2-oxo-2,3-dihydro-1H-imidazo[4,5-c]pyridin-1-yl)cyclopentyl-1-d)carbamate], the IC50 is at most 10 nM in assay [1] and above 1000 nM in assay [2].
